Key:
ScSsz1-Zuo1N complex = biological target: T1, ScSsz1-Zuo1N complex (Saccharomyces cerevisiae, UniProt P32527+P38788); experiment: fluorescence anisotropy peptide binding; conditions: N-terminally fluorescein-labelled peptide, 40 nM mixed 1:1 with protein, pH 7.5, 200 mM KCl, 30 min, room temperature, Ssz1-Zuo1N
T1 construct: His6-SUMO (N); made in house
T1 sequence (P38788 1-538): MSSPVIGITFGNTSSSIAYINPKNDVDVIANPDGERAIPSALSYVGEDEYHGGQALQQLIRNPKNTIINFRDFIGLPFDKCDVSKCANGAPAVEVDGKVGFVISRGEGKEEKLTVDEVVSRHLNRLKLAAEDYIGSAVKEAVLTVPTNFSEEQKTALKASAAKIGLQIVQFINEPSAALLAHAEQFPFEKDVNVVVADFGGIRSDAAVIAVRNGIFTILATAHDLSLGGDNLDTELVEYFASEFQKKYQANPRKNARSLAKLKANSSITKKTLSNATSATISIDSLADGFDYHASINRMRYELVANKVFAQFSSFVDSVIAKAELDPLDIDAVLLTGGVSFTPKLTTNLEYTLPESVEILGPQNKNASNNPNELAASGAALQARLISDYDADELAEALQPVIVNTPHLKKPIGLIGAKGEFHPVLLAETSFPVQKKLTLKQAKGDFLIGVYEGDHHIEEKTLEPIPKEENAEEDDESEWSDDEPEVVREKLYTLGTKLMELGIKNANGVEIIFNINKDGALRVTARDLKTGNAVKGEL
T1 sequence (P32527 1-50 partner): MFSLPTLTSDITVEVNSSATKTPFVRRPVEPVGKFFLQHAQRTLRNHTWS
Method: (§1) 1 µM BSA was added to prevent unspecific binding of the fluorescently labelled peptide to the microplate (Greiner Bio-One opaque 384 well plate). Fluorescence anisotropy measurements were performed using the LP-peptide (MFSLPTL) or the NR-peptide (NRLLLTG) labelled at the N terminus with fluorescein (Peptide Specialty Laboratories GmbH, Heidelberg). Two-fold serial dilutions of each protein (ScSsz1-Zuo1N or ScSsz1-Zuo1NΔLP) were mixed in a 1:1 ratio with 40 nM peptides in anisotropy buffer in 384-well opaque plates (Greiner Bio One) and were incubated at room temperature for 30 min. Measurements were performed in triplicate using a plate reader (SpectraMax M5e Multi Mode Microplate reader, Molecular Devices). To determine the binding constant (KD) the data were fitted to a one-site binding equation using Python[57].
(§2) Ssz1-Zuo1NΔLP Ssz1-Zuo1NΔLP
(§3) Supplementary Figure 6. Figure S6
(§4) An al ysi s o f su b strate b in di ng to ScRAC co re vari ants b y fl uo rescen ce an i so trop y.
(§5) (a) Binding curves of the fluorescently labeled LP-pept ide or (b ) NR-peptide to Ssz1-Zuo1N (circle) or
(§6) Ssz1-Zuo1NDLP (square) are shown. The mean and standard deviation from three technical replicates
(§7) is indicated. Source data are provided as a Source Data file.

Zuo1-ΔN8 = experiment: peptide competition with nascent chain crosslinking (XL-Zuo1); type: biochemical, Saccharomyces cerevisiae; conditions: RNCs Pgk1-100, RAC-ΔN8, Δssb; peptide added prior to 400 µM BS3 crosslinking, 5 or 50 µM
Source text: Fig. 3 Nascent chain binding to the Ssz1-SBD is modulated by the N-terminus of Zuo1. a Amino acid sequence of the ScZuo1N. Arrows indicate the positions of truncations in Zuo1-ΔN8, Zuo1-ΔN16, and Zuo1-ΔN49. The color code is as in Fig. 2a. The secondary structure derived from the crystal structure is depicted above. b The Zuo1N LP-motif interferes with the contact of nascent Pgk1-100 with Zuo1 and Ssz1. Ribosome-free extracts obtained from Δssb1Δssb2 (Zuo1, Ssz1), Δssb1Δssb2 RAC-ΔN8 (ΔN8, Ssz1), or Δssb1Δssb2 RAC-ΔN16 (ΔN16, Ssz1) strains (upper panel) were added to RNCs from Δssb1Δssb2Δzuo1Δssz1 translation extract prior to crosslinking. Crosslink products between Zuo1 and nascent Pgk1-100 (XL-Zuo1) and Ssz1 and nascent Pgk1-100 (XL-Ssz1), respectively. c, d Quantification of crosslinking between nascent Pgk1-100 and Zuo1 (c) and Ssz1 (d). Autoradiographs as shown in (b) were employed for the quantification of nascent Pgk1-100 and the crosslink products XL-Zuo1 and XL-Ssz1. Values were normalized as described in Methods. The efficiency of crosslinking is given as a percentage of nascent Pgk1-100 present in the reaction. […]
(§8) Chemical crosslinking of ribosome-bound nascent chains to Ssb, Zuo1, or Ssz1 was analyzed essentially as described. […] Samples were analyzed on Tris-Tricine gels[56] followed by autoradiography. […]

ATP-bound DnaK = conditions: read-out: affinity for ATP-bound DnaK, low-affinity state; cited from earlier work
Ssz1 in RAC-ΔN8 = experiment: peptide competition with nascent chain crosslinking (XL-Ssz1); type: biochemical, Saccharomyces cerevisiae
Source text: Fig. 3 Nascent chain binding to the Ssz1-SBD is modulated by the N-terminus of Zuo1. a Amino acid sequence of the ScZuo1N. Arrows indicate the positions of truncations in Zuo1-ΔN8, Zuo1-ΔN16, and Zuo1-ΔN49. The color code is as in Fig. 2a. The secondary structure derived from the crystal structure is depicted above. b The Zuo1N LP-motif interferes with the contact of nascent Pgk1-100 with Zuo1 and Ssz1. Ribosome-free extracts obtained from Δssb1Δssb2 (Zuo1, Ssz1), Δssb1Δssb2 RAC-ΔN8 (ΔN8, Ssz1), or Δssb1Δssb2 RAC-ΔN16 (ΔN16, Ssz1) strains (upper panel) were added to RNCs from Δssb1Δssb2Δzuo1Δssz1 translation extract prior to crosslinking. Crosslink products between Zuo1 and nascent Pgk1-100 (XL-Zuo1) and Ssz1 and nascent Pgk1-100 (XL-Ssz1), respectively. c, d Quantification of crosslinking between nascent Pgk1-100 and Zuo1 (c) and Ssz1 (d). Autoradiographs as shown in (b) were employed for the quantification of nascent Pgk1-100 and the crosslink products XL-Zuo1 and XL-Ssz1. Values were normalized as described in Methods. The efficiency of crosslinking is given as a percentage of nascent Pgk1-100 present in the reaction. Experiments were performed in triplicate, with the exception of the XL-Zuo1-ΔN8 (shown in c), which was performed only once. Shown is the mean (bars) and the result of each biologically independent experiment (dots). Error bars indicate the standard deviation of the mean. e Crosslinking of the nascent chain to Ssz1 requires a functional peptide binding groove. Ribosome-free extracts from Δssb1Δssb2 RAC-ΔN8 (Zuo1-ΔN8, Ssz1) or Δssb1Δssb2 RACmut-ΔN8 (Zuo1-ΔN8, Ssz1mut) (upper panel) was added to RNCs generated in Δssb1Δssb2Δzuo1Δssz1 translation extract as described in Fig. 1b. […] RNCs were generated in a Δssb1Δssb2Δzuo1Δssz1 translation extract and ribosome-free extract from Δssb1Δssb2 RAC-ΔN8 (Zuo1-ΔN8, Ssz1) was added. […]
as §8

ScSsz1-Zuo1NΔLP complex = biological target: T2, ScSsz1-Zuo1NΔLP complex (Saccharomyces cerevisiae, UniProt P32527+P38788); type: binding; conditions: fluorescence anisotropy; N-terminally fluorescein-labelled peptide, 40 nM mixed 1:1 with protein; pH 7.5, 200 mM KCl; 30 min, room temperature; Ssz1-Zuo1NΔLP
T2 construct: His6-SUMO (N); made in house
Method: as §1, §2, §3, §4, §5, §6, §7

Substance: NRLLLTG [NR-peptide, NRLLLTG peptide, serves as an Hsp70 model substrate]
- affinity (ScSsz1-Zuo1N complex): below the detection limit
- effect on nascent chain crosslinking to Zuo1-ΔN8 (XL-Zuo1) (Zuo1-ΔN8): Neither of the peptides added prior to the crosslinking reaction affected nascent chain crosslinking to Zuo1-ΔN8
- Kd (ATP-bound DnaK): 23.8 ± 3.8 µM
- displacement of nascent chain (Ssz1 in RAC-ΔN8; 50 µM peptide, ribosome-bound nascent chain): partly displaced
- effect on nascent chain crosslinking to Ssz1 (XL-Ssz1) (Ssz1 in RAC-ΔN8; RNCs Pgk1-100, RAC-ΔN8, Δssb, peptide added prior to 400 µM BS3 crosslinking, 5 or 50 µM): to a lesser extent also NR-peptide, significantly reduced crosslinking of the nascent chain to Ssz1
- displacement compared with LP-peptide (Ssz1 in RAC-ΔN8; ribosome-bound nascent chain, 50 µM peptide): significantly lower
- affinity (ScSsz1-Zuo1NΔLP complex): below the detection limit

Source: publication PMC7083937, “The ribosome-associated complex RAC serves in a relay that directs nascent chains to Ssb” (Nature Communications, 2020)
